In the supplement of paper PMC13380429:

How the values were obtained:
Conditions in all cases: 72 h
Caco-2 [1] = assay: relative viability EC50 (midpoint between 100% and the lowest measured viability); higher = less toxic
HepG2 [2] = assay: as above
Vero E6 [3] = assay: as above
U2OS [4] = assay: as above
Calu-3 [5] = assay: as above
Caco-2 [6] = assay: drug sensitivity score (DSS) for viability; higher = more toxic; extreme values may be limits of the assay
HepG2 [7] = assay: as above
Vero E6 [8] = assay: as above
U2OS [9] = assay: as above
Calu-3 [10] = assay: as above
Caco-2 [11] = assay: cell viability relative to DMSO; higher = less toxic
HepG2 [12] = assay: as above
Vero E6 [13] = assay: as above
U2OS [14] = assay: as above
Calu-3 [15] = assay: as above

Structure (SMILES)	relative viability EC50 (Caco-2 [1]) [µM]	relative viability EC50 (HepG2 [2]) [µM]	relative viability EC50 (Vero E6 [3]) [µM]	relative viability EC50 (U2OS [4]) [µM]	relative viability EC50 (Calu-3 [5]) [µM]	drug sensitivity score (Caco-2 [6])	drug sensitivity score (HepG2 [7])	drug sensitivity score (Vero E6 [8])	drug sensitivity score (U2OS [9])	drug sensitivity score (Calu-3 [10])	cell viability (Caco-2 [11]; 1 nM) [%]	cell viability (Caco-2 [11]; 10 nM) [%]	cell viability (Caco-2 [11]; 100 nM) [%]	cell viability (Caco-2 [11]; 1000 nM) [%]	cell viability (Caco-2 [11]; 10000 nM) [%]	cell viability (HepG2 [12]; 1 nM) [%]	cell viability (HepG2 [12]; 10 nM) [%]	cell viability (HepG2 [12]; 100 nM) [%]	cell viability (HepG2 [12]; 1000 nM) [%]	cell viability (HepG2 [12]; 10000 nM) [%]	cell viability (Vero E6 [13]; 1 nM) [%]	cell viability (Vero E6 [13]; 10 nM) [%]	cell viability (Vero E6 [13]; 100 nM) [%]	cell viability (Vero E6 [13]; 1000 nM) [%]	cell viability (Vero E6 [13]; 10000 nM) [%]	cell viability (U2OS [14]; 1 nM) [%]	cell viability (U2OS [14]; 10 nM) [%]	cell viability (U2OS [14]; 100 nM) [%]	cell viability (U2OS [14]; 1000 nM) [%]	cell viability (U2OS [14]; 10000 nM) [%]	cell viability (Calu-3 [15]; 1 nM) [%]	cell viability (Calu-3 [15]; 10 nM) [%]	cell viability (Calu-3 [15]; 100 nM) [%]	cell viability (Calu-3 [15]; 1000 nM) [%]	cell viability (Calu-3 [15]; 10000 nM) [%]
COc1ccc(C(CN(C)C)C2(O)CCCCC2)cc1 (stereo not given) [venlafaxine]	> 10	> 10	> 10	> 10	> 10	0.2	0	0	0	0	110	87.5	125	127	82	108	112	95.8	93.2	107	99.2	100	84.1	92.9	101	97.1	91.5	102	97.4	102	104	99.9	95.6	99.9	107
C=CC(N)CCC(=O)O (stereo not given) [vigabatrin]	> 10	> 10	> 10	> 10	> 10	0	0	0	0	0	93.7	96.1	101	98.1	93.2	100	89.6	113	96.1	104	96.5	93.8	101	88.4	97.1	95.9	103	96.8	99.4	91.7	103	105	99	102	106
CC[C@@H]1C(=O)N(C)c2cnc(Nc3ccc(C(=O)N[C@H]4CC[C@H](N5CCN(CC6CC6)CC5)CC4)cc3OC)nc2N1C(C)C [volasertib]	0.36	0.081	0.386	0.293	1.67	11.5	23.2	16.3	14.7	7	104	93.2	74	57.8	26.7	106	104	42.7	17.6	9.1	101	98	90.6	18.3	1.5	99	99.4	87.2	29.1	18.7	112	86.8	91.3	83.3	22.1
COc1cc(C(=O)NS(=O)(=O)c2ccccc2C)ccc1Cc1cn(C)c2ccc(NC(=O)OC3CCCC3)cc12 [zafirlukast]	> 10	> 10	> 10	> 10	> 10	0	0	0	0	0	92.3	104	105	97.8	99.2	104	101	109	94.6	96.6	96.2	92.5	91.2	94.2	94.6	92.7	98.4	103	105	100	96.9	101	97.2	100	110
